Measured values: US20190225650A1, “PEPTIDOMIMETIC MACROCYCLES AND USE THEREOF IN REGULATING HIF1ALPHA” (AILERON THERAPEUTICS, INC., priority 2013, published 2019)
Bridge positions count the residues as written; N and C are the ends. Square brackets hold non-standard residues; d marks the D form. Peptide text beside a SMILES is read from it. S5 = C=CCCC[C@](C)(N)C(=O)O; Nle = CCCC[C@H](N)C(=O)O

Molecular target: T1, flag-tagged HIF1α (AA 786-826) / His6-tagged p300 (AA 323-423) complex (Homo sapiens, UniProt Q09472)
T1 construct: His6-tagged p300 (AA 323-423); made in house; host or cells: E. coli (pETDuet vector)
Assay: HIF1α p300 displacement assay (TR FRET, +CHAPS)
Type: binding
Conditions: read-out: IC50 (nM) (HIF1α_p300 Displacement + CHAPS)
Procedure: The ability of peptides to displace HIF1α c-terminal trans-activation domain from p300-CH was measured by a TR FRET assay. A complex of flag-tagged HIF1α (AA 786-826) and His6-tagged p300 (AA 323-423) was co-expressed using pETDuet vector (EMDMillipore, Bellrica Mass.) and purified from E. coli in the presence of 0.1 mM ZnSO4. The complex was diluted to 300 nM final in complete assay media and competitor peptides were added. The complete assay media contained 150 mM NaCl (Sigma +S5150 or equivalent), 20 mM HEPES pH 7.4 (Boston Bioproducts, Ashland, Mass.; #BB-2076), 7.5 mM CHAPS (Thermo #28300 or equivalent), and 1 mM DTT. Protein and peptide were incubated at room temperature for 1 hour before the addition of anti-Flag-K and anti-6×HIS-D2 (CisBio, Bedford Mass.) HTRF reconstitution buffer (50 mM Phosphate pH 7, 0.8 Potassium Flouride, BSA 0.2%)^1 to a final concentration of 0.5 μM and 4 nM respectively. […] The reaction was read on a TECAN F500 plate reader with settings recommended by CisBio. The ratio of donor to acceptor fluorescence was calculated. The resulting data was analyzed with Graphpad Prism 5.0. IC50 values were calculated for both proteins using the One Site Fit-LogIC50 equation and presented in the column “IC50 (nM) (HIF1α_p300 Displacement+CHAPS)” of Table 6. ^1 Cisbio USA, Bedford, Mass.; 61HISDLB (lot 007A), 61FG2KLB (024A), HTRF Buffer (62RB3RDF)

**Q.** For `CCCC[C@H](NC(=O)[C@H](C)NC(=O)[C@@H](NC(=O)[C@@H](NC(=O)[C@H](CC(C)C)NC(=O)[C@]1(C)CCCC=CCCC[C@](C)(NC(=O)[C@H](CCC(=O)O)NC(=O)[C@H](CC(=O)O)NC(=O)[C@@H](NC(=O)[C@H](Cc2ccccc2)NC(C)=O)[C@@H](C)CC)C(=O)N[C@@H](C(C)C)C(=O)N[C@@H](CC(C)C)C(=O)N[C@@H](CCCC)C(=O)N1)C(C)C)[C@@H](C)CC)C(=O)N[C@@H](C)C(=O)N[C@@H](CC(C)C)C(=O)N[C@@H](CO)C(=O)N[C@@H](CO)C(=O)N[C@H](C(N)=O)[C@@H](C)CC` [SP-129] (Ac-FIDE[S5]VL[Nle][S5]LVIA[Nle]ALSSI-NH2; staple 5-9), which IC50 is on record?
**A.** > 700 nM
